Here are results for 4 compounds from patent US8980587B2, “Process for producing reveromycin A or a synthetic intermediate thereof, process for producing compounds containing a spiroketal ring and novel antineoplastics, fungicides and therapeutic agents for bone disorders” (RIKEN, priority 2010, dated 2015).

SMILES strings stand for the structures. Converted amounts (≈) assume the structure as drawn. Like-named read-outs stand apart in the source and are kept apart here.

Assay [1] deals with osteoclasts. The conditions noted are these: background art, Patent Document 1; cited from earlier work.
For assay [2], the system named is osteoclasts. Nature of the assay: Growth inhibitory activity against osteoclast (TRAP positive multinucleated cell count). Type of assay: cell-based, mouse. Conditions: for IC50: Osteoclast, read-out: OC IC50. Here is the method:
Bone marrow cells were harvested from thigh bone and shin bone of five-week male ddY mouse (manufactured by Japan SLC, Inc.), seeded in a type I collagen coated plate (manufactured by IWAKI) in a culture medium in which α-MEM medium (manufactured by Sigma-Aldrich) was added with 10% fetal bovine serum, 0.5% penicillin/streptomycin solution, 50 ng/ml human M-CSF (Leukoprol, manufactured by Kyowa Hakko), and 1 ng/ml human TGF-β1 (manufactured by R&D Systems), and maintained at 37° C. under a humidified culture of 5% CO2 for 3 days. Cells were then washed twice with PBS and then cells adhered on the plate were used as bone marrow macrophage cells. Bone marrow macrophage cells were further maintained in a culture medium in which α-MEM medium was added with 10% fetal-bovine serum, 0.5% penicillin/streptomycin solution, 50 ng/ml human M-CSF, 50 ng/ml human soluble RANKL (manufactured by Peprotech) at 37° C. under a humidified culture of 5% CO2 for 3 days to differentiate into osteoclasts.
Each of the agents in Table 5 was added to osteoclasts at 0.5% (v/v) and maintained at 37° C. under a humidified culture of 5% CO2 for 24 hours. Subsequently, cells were treated with PBS solution containing 3.7% formalin at room temperature for 30 minutes. After the solution was removed, the cells were further treated with acetone/ethanol solution (1:1 vol/vol) at room temperature for one minute and the solution was removed to dry the cells. Immobilized cells were subjected to a reaction in TRAP solution [50 mM sodium tartrate, 90 mM sodium acetate, 0.01% naphthol AS-MX phosphate (manufactured by Sigma), 0.05% fast red violet LB salt (manufactured by Sigma), pH 5.0] at room temperature for 30 minutes and then washed with distilled water. The number of TRAP positive multinucleated osteoclasts was counted and a rate of survival was determined.

The subject of assay [3] is K562 cells (human chronic myeloid leukemia cell line). Briefly: Growth-inhibiting activity against animal cells (WST-8), K562. Type of assay: cell-based. Here is the method: (§1) HL-60 cells (human acute promyelocytic leukemia cell line) and K562 cells (human chronic myeloid leukemia cell line) were maintained in a culture medium in which RPMI1640 medium (manufactured by Invitrogen) was added with 10% fetal bovine serum (manufactured by Nichirei), 0.5% penicillin/streptomycin solution (manufactured by Invitrogen) at 37° C. under a humidified culture of 5% CO2. tsFT210 cells (mouse breast cancer cells CDC2 temperature sensitive strain) were maintained in a culture medium in which RPMI1640 medium (manufactured by Invitrogen) was added with 5% calf serum (manufactured by Hyclone) and 0.5% penicillin/streptomycin solution at 32° C. under a humidified culture of 5% CO2.
(§2) HL-60 cells and K562 cells were seeded in a 96-well plate (manufactured by IWAKI) so as to be 1.5×10^4 cells/well/100 μl. tsFT210 cells were seeded in a 96-well plate so as to be 1.6×10^4 cell/well/100 μl. Each of the agents in Table 5 was added at 0.5% (v/v). HL-60 cells and K562 cells were maintained at 37° C. under a humidified culture of 5% CO2 and tsFT210 cells were maintain at 32° C. under a humidified culture of 5% CO2. Forty eight hours after addition of the agent, 10 μl of a reagent SF solution for counting live cells (WST-8 reagent, manufactured by Nakarai tesque) was added to each well. HL-60 cells and K562 cells were maintained at 37° C. under a humidified culture of 5% CO2 for 30 minutes and tsFT210 cells were maintain at 32° C. under a humidified culture of 5% CO2 for one hour. After the reaction, absorbance at 450 nm was measured using a microplate reader (manufactured by PerkinElmer) and a cell proliferation rate was determined from the measurement value.

In assay [4] the test system is HL-60 cells (human acute promyelocytic leukemia cell line). Nature of the assay: Growth-inhibiting activity against animal cells (WST-8), HL-60. Type of assay: cell-based. The conditions noted are these: for IC50: Homo sapiens, read-out: HL60 IC50; for cancer cell growth-inhibiting activity (in words): summary of Table 5 (HL60, K562, tsFT210), RM-T as compared with RM-A. Here is the method:
as §1, §2

Assay [5] concerns Escherichia coli (HO141 strain). Briefly: Growth-inhibiting activity against Escherichia coli. In kind it is cell-based. The conditions noted are these: 6 hours, absorbance at 600 nm, read-out: E. coli IC50. Here is the method: Escherichia coli (HO141 strain) was precultured in culture medium of 0.5% Polypeptone, 0.5% Meat Extract, 0.3% NaCl, and 0.001% Sodium Dodecyl Sulfate (SDS) at 37° C. Absorbance at 600 nm was measured, and Escherichia coli solution was prepared such that the absorbance is 0.005 and seeded 100 μl each in a 96-well plate. Each of the agents in Table 5 was added at 0.5% (v/v) and maintained at 37° C. Six hours after addition of the agent, absorbance at 600 nm was measured using a microplate reader (manufactured by PerkinElmer) and a proliferation rate was determined from the measurement value.

Assay [6] concerns bone metastasis of tumors. Conditions: background art, Patent Document 1; cited from earlier work.
Setting [7] is: K562, 48 h, read-out: K562 IC50.

Turning to `CCCC[C@@]1(OC(=O)CCC(=O)O)CC[C@]2(CC[C@H](C)[C@@H](C/C=C(C)/C=C/[C@H](O)[C@@H](C)/C=C/C(=O)O)O2)O[C@H]1/C=C/C(C)=C/C(=O)O` [RM-A, Reveromycin A], the “apoptosis of osteoclasts (in words)” value with osteoclasts [1] was “induce apoptosis selectively for osteoclasts at low concentrations”. In addition, the IC50 (usually the concentration at which inhibition is half-maximal) in the assay with osteoclasts [2] (Mus musculus, 24 h) is 0.06 µg/mL (≈ 0.0908 µM); in assay [3] (setting [7]), 4.9 µg/mL (≈ 7.42 µM); in assay [4] (HL-60, 48 h) it was 2.7 µg/mL (≈ 4.09 µM); in assay [5], > 50 µg/mL. Also, the “bone metastasis of tumors (in words)” value in assay [6] is reported as “suppress bone metastasis of tumors”.
Consider `CCCCCC[C@@]1(OC(=O)CCC(=O)O)CC[C@]2(CC[C@H](C)[C@@H](C/C=C(C)/C=C/[C@H](O)[C@@H](C)/C=C/C(=O)O)O2)O[C@H]1/C=C/C(C)=C/C(=O)O` [RM-E], for which the IC50 with osteoclasts [2] (Mus musculus, 24 h) is 0.1 µg/mL (≈ 0.145 µM); in assay [3] (setting [7]), 1.9 µg/mL (≈ 2.76 µM); in assay [4] (HL-60, 48 h) it was 1.5 µg/mL (≈ 2.18 µM); in assay [5], > 50 µg/mL. Besides, in the assay on osteoclasts [2] (summary of Table 5), the “growth inhibiting actions against osteoclast (in words)” value was “exhibited growth inhibiting actions against osteoclast”. The “cancer cell growth-inhibiting activity (in words)” value in assay [4] was “high”.
Take `CCCC[C@H]1CC[C@]2(CC[C@H](C)[C@@H](C/C=C(C)/C=C/[C@H](O)[C@@H](C)/C=C/C(=O)OCC)O2)O[C@H]1/C=C/C(C)=C/C(=O)O` [RM-T ethyl-ester]: the IC50 was 6 µg/mL (≈ 10.5 µM) in the assay on osteoclasts [2] (mouse bone marrow derived osteoclasts, 24 hours, rate of survival); 0.7 µg/mL (≈ 1.22 µM) in assay [3] (K562 cells, 48 hours after addition of the agent, WST-8, read-out: K562 IC50); 0.2 µg/mL (≈ 0.349 µM) in assay [4] (HL-60 cells, 48 hours after addition of the agent, WST-8); > 50 µg/mL in assay [5]. In assay [4], the “cancer cell growth-inhibiting activity (in words)” value is “high”.
With `CCCCC1CCC2(CCC(C)C(C/C=C(C)/C=C/C(O)C(C)/C=C/C(=O)O)O2)OC1/C=C/C(C)=C/C(=O)O` (stereo not shown) [RM-T], the IC50 with osteoclasts [2] (Mus musculus, 24 h) is 6.2 µg/mL (≈ 11.4 µM); in assay [3] (setting [7]) it was 0.7 µg/mL (≈ 1.29 µM); in assay [4] (HL-60, 48 h) it was 0.2 µg/mL (≈ 0.367 µM); in assay [5], > 50 µg/mL. Besides, the “cancer cell growth-inhibiting activity (in words)” value in assay [4] is given as “higher”.
